{"source": "paper PMC10256776", "about": "“Cryo-EM structures of ClC-2 chloride channel reveal the blocking mechanism of its specific inhibitor AK-42” (Nature Communications, 2023)", "assay_in_all_cases": "whole-cell patch clamp, […] AK-42", "type_in_all_cases": "cell-based", "key": {"[1]": {"biological_target": "T1, ClC-2 (Homo sapiens, UniProt P51788, K394R)", "T1 construct": "gene CLCN2; human ClC-2 mutant expressed in CHO-K1 cells", "T1 sequence (P51788 2-898 K394R)": "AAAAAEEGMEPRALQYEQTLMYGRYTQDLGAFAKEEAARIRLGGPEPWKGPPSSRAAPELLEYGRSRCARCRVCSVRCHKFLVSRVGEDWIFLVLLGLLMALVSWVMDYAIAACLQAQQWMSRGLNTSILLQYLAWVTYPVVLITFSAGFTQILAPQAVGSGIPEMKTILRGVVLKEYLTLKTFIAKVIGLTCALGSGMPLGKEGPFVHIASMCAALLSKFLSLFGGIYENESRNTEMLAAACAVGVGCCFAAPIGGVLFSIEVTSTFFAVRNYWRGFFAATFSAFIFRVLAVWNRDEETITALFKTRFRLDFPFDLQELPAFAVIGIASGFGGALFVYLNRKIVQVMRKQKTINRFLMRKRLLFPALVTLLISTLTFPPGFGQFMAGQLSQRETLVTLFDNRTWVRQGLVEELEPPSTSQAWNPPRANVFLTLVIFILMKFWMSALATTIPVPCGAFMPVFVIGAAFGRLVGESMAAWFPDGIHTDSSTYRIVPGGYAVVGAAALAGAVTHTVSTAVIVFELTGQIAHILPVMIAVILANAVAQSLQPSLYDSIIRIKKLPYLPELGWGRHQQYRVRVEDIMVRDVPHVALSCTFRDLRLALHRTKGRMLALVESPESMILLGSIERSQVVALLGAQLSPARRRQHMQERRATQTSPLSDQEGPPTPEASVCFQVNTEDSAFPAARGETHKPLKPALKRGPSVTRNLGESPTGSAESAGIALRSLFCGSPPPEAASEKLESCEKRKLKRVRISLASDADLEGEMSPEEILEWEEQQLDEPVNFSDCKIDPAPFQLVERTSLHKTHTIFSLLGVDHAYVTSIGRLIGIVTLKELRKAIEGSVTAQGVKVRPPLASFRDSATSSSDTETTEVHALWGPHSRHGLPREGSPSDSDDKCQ"}, "[2]": {"biological_target": "T2, ClC-2 (Homo sapiens, UniProt P51788, K394A)", "T2 construct": "gene CLCN2; human ClC-2 mutant expressed in CHO-K1 cells", "T2 sequence (P51788 2-898 K394A)": "T1 sequence (P51788 2-898 K394R) with R393A"}, "[3]": {"biological_target": "T3, ClC-2 (Homo sapiens, UniProt P51788, F459A)", "T3 construct": "gene CLCN2; human ClC-2 mutant expressed in CHO-K1 cells", "T3 sequence (P51788 2-898 F459A)": "T1 sequence (P51788 2-898 K394R) with R393K, F458A"}}, "note": "Changes are numbered by the printed parent chain.", "data": [{"smiles": "O=C(O)c1cccnc1Nc1c(Cl)ccc(OCc2ccccc2)c1Cl", "note": "[AK-42, 2-((3-(benzyloxy)−2,6-dichlorophenyl)amino)nicotinic acid]", "values": [{"measurement": "whole-cell patch clamp, 30 nM AK-42", "setting": "[1]", "value": "K394R and K394A showed a slightly lower but not significant percent inhibition of AK-42 than wild-type ClC-2"}, {"measurement": "whole-cell patch clamp, 30 nM AK-42", "setting": "[2]", "value": "K394R and K394A showed a slightly lower but not significant percent inhibition of AK-42 than wild-type ClC-2"}, {"measurement": "whole-cell patch clamp, 30 nM AK-42", "setting": "[3]", "value": "the mutation F459A in the hydrophobic pocket shows a higher percent inhibition value than wild-type ClC-2"}]}]}
